Data as given in patent US20230348369A1 (Cytokinetics, Inc., priority 2020, published 2023).
Where two headings read alike, the source gives them in different places.

Biological target: human NAMPT (Homo sapiens, UniProt P43490)
Test: Human recombinant enzyme assay (NMN fluorescence biochemical assay, activation of NAMPT)
Experimental: Compounds described herein were assayed for their ability to stimulate the synthesis of nicotinamide mononucleotide (NMN) by the enzyme NAMPT. The human recombinant enzyme assay measures the activation of the enzyme activity by compounds using recombinant enzyme and substrates in a buffered cell-free system. The assay conditions closely mimic cellular environments. Dose responses were measured using an assay to detect the formation of nicotinamide mono-nucleotide. All experiments were performed in the 384-well format. […] Enzyme reactions were initiated with the addition of 10 μL of a solution containing the substrates. The final assay conditions were as follows: 6 nM human NAMPT, 2.5 mM ATP, 20 μM PRPP and 150 μM nicotinamide in 50 mM HEPES, pH 7.2, 1 mM DTT, 1 mM CHAPS 50 mM NaCl, 100 mM MgCl2. Following an incubation of 60 min at ambient temperature, 10 μL of 20% acetophenone in DMSO was added, followed by 10 μL of 2 M KOH and 40 μL of formic acid. The plates were read for fluorescence (Excitation/Emission=355 nm/460 nm) using an EnVision plate reader after 40 mins of incubation at ambient temperature.

[1] = Table A, human recombinant NAMPT, NMN formation, 60 min
[2] = Table A, human recombinant NAMPT, NMN formation, 60 min, read-out: EC50 Human

Chain of human NAMPT (P43490 whole entry): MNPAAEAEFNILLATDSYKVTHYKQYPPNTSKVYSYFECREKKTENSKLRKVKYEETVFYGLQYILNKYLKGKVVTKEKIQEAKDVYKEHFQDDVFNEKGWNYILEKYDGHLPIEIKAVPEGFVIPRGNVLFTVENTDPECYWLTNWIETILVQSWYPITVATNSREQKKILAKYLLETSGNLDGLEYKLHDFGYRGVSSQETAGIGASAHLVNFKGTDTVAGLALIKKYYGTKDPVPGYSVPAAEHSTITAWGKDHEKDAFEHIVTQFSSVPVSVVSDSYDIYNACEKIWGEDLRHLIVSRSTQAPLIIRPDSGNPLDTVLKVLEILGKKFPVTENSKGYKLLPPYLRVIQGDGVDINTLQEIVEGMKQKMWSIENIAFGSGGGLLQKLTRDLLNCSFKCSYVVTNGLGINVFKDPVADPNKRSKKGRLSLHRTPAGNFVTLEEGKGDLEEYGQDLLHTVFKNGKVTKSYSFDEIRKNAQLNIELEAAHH

AC1.4 Human [1] [µM]	EC50 [2] [µM]	Structure (SMILES)	EC50 [µM]
5.1	45.2	COc1ccc(CNC(=O)NC2CC3(C2)CC(C(=O)NCc2ccccc2)C3)cc1 (stereo not drawn) [Compound 68, N-benzyl-6-(3-(4-methoxybenzyl)ureido)spiro[3.3]heptane-2-carboxamide]	
11.5	42	COc1ccc(CNC(=O)NC2CC3(C2)CC(C(=O)NCCc2cn[nH]c2)C3)cc1 (stereo not drawn) [Compound 75, N-(2-(1H-pyrazol-4-yl)ethyl)-6-(3-(4-methoxybenzyl)ureido)spiro[3.3]heptane-2-carboxamide]	
7.2	35.1	COc1ccc(CNC(=O)NC2CC3(C2)CC(C(=O)NCc2ccc(C#N)cc2F)C3)cc1 (stereo not drawn) [Compound 77, N-(4-cyano-2-fluorobenzyl)-6-(3-(4-methoxybenzyl)ureido)spiro[3.3]heptane-2-carboxamide]	
4.4	45.2	COc1ccc(CNC(=O)NC2CC3(C2)CC(C(=O)NC2CC(c4ccncc4)C2)C3)cc1 (stereo not drawn) [Compound 78, 6-(3-(4-methoxybenzyl)ureido)-N-(3-(pyridin-4-yl)cyclobutyl)spiro[3.3]heptane-2-carboxamide]	
2.4	45.4	COc1ccc(CNC(=O)NC2CC3(C2)CC(C(=O)NCC(C)(C)c2ccncc2)C3)cc1 (stereo not drawn) [Compound 80, 6-(3-(4-methoxybenzyl)ureido)-N-(2-methyl-2-(pyridin-4-yl)propyl)spiro[3.3]heptane-2-carboxamide]	
12.5	37.2	COc1ccc(CNC(=O)N[C@H]2C[C@]3(CCN(C(=O)OC(C)(C)C)C3)C2)cc1 [Compound 81, tert-butyl (2r,4s)-2-(3-(4-methoxybenzyl)ureido)-6-azaspiro[3.4]octane-6-carboxylate]	
10.7	52.3	COc1ccc(CNC(=O)N[C@H]2C[C@@]3(CCN(C(=O)OC(C)(C)C)C3)C2)cc1 [Compound 82, tert-butyl (2s,4r)-2-(3-(4-methoxybenzyl)ureido)-6-azaspiro[3.4]octane-6-carboxylate]	
4.7	49.4	COc1ccc(CNC(=O)NC2CC3(C2)CC(C(=O)Nc2ccccc2)C3)cc1 (stereo not drawn) [Compound 86, 6-(3-(4-methoxybenzyl)ureido)-N-phenylspiro[3.3]heptane-2-carboxamide]	
16.3	48.8	COc1ccc(CNC(=O)NC2CC3(C2)CC(C(=O)NCc2ccnc(OC(F)F)c2)C3)cc1 (stereo not drawn) [Compound 88, N-((2-(difluoromethoxy)pyridin-4-yl)methyl)-6-(3-(4-methoxybenzyl)ureido)spiro[3.3]heptane-2-carboxamide]	
10.3	33.7	COc1ccc(CNC(=O)NC2CC3(C2)CC(C(=O)Nc2ccc4nncn4c2)C3)cc1 (stereo not drawn) [Compound 89, N-([1,2,4]triazolo[4,3-a]pyridin-6-yl)-6-(3-(4-methoxybenzyl)ureido)spiro[3.3]heptane-2-carboxamide]	
3.7	13	COc1ccc(CNC(=O)NC2CC3(C2)CC(C(=O)N[C@@H]2CCc4ccccc42)C3)cc1 (stereo partly drawn) [Compound 91, (R)-N-(2,3-dihydro-1H-inden-1-yl)-6-(3-(4-methoxybenzyl)ureido)spiro[3.3]heptane-2-carboxamide]	
2.9	13.5	COc1ccc(CNC(=O)NC2CC3(C2)CC(C(=O)N[C@H]2CCc4ccccc42)C3)cc1 (stereo partly drawn) [Compound 92, (S)-N-(2,3-dihydro-1H-inden-1-yl)-6-(3-(4-methoxybenzyl)ureido)spiro[3.3]heptane-2-carboxamide]	
6.3	34.8	COc1ccc(CNC(=O)NC2CC3(C2)CC(C(=O)NC2CC(CO)c4ccccc42)C3)cc1 (stereo not drawn) [Compound 93, N-(3-(hydroxymethyl)-2,3-dihydro-1H-inden-1-yl)-6-(3-(4-methoxybenzyl)ureido)spiro[3.3]heptane-2-carboxamide]	
11.0	38.7	COc1ccc(CNC(=O)NC2CC3(C2)CC(C(=O)NC2Cc4ccccc4C2O)C3)cc1 (stereo not drawn) [Compound 94, N-(1-hydroxy-2,3-dihydro-1H-inden-2-yl)-6-(3-(4-methoxybenzyl)ureido)spiro[3.3]heptane-2-carboxamide]	
4.3	13.3	COc1ccc(CNC(=O)NC2CC3(C2)CC(C(=O)NC2Cc4ccccc4C2)C3)cc1 (stereo not drawn) [Compound 95, N-(2,3-dihydro-1H-inden-2-yl)-6-(3-(4-methoxybenzyl)ureido)spiro[3.3]heptane-2-carboxamide]	
2.6	4.1	COc1ccc(CNC(=O)NC2CC3(C2)CC(C(=O)N[C@@H]2CCc4ccccc4C2)C3)cc1 (stereo partly drawn) [Compound 96, (R)-6-(3-(4-methoxybenzyl)ureido)-N-(1,2,3,4-tetrahydronaphthalen-2-yl)spiro[3.3]heptane-2-carboxamide]	
0.2	2.7	COc1ccc(CNC(=O)NC2CC3(C2)CC(C(=O)N2CCCc4cc(F)ccc42)C3)cc1 (stereo not drawn) [Compound 101, 1-(6-(6-fluoro-1,2,3,4-tetrahydroquinoline-1-carbonyl)spiro[3.3]heptan-2-yl)-3-(4-methoxybenzyl)urea]	
8.0	33.3	COc1ccc(CNC(=O)NC2CC3(C2)CC(C(=O)N2CCCc4ccc(F)c(F)c42)C3)cc1 (stereo not drawn) [Compound 102]	
0.3	7	COc1ccc(CNC(=O)NC2CC3(C2)CC(C(=O)N2CCCc4cc(OC(F)F)ccc42)C3)cc1 (stereo not drawn) [Compound 103, 1-(6-(6-(difluoromethoxy)-1,2,3,4-tetrahydroquinoline-1-carbonyl)spiro[3.3]heptan-2-yl)-3-(4-methoxybenzyl)urea]	
0.5	10.7	COc1ccc(CNC(=O)NC2CC3(C2)CC(C(=O)N2CCCc4cc(C(F)(F)F)ccc42)C3)cc1 (stereo not drawn) [Compound 104, 1-(4-methoxybenzyl)-3-(6-(6-(trifluoromethyl)-1,2,3,4-tetrahydroquinoline-1-carbonyl)spiro[3.3]heptan-2-yl)urea]	
0.1	2.2	COc1ccc(CNC(=O)NC2CC3(C2)CC(C(=O)N2CCCc4c(F)cccc42)C3)cc1 (stereo not drawn) [Compound 105, 1-(6-(5-fluoro-1,2,3,4-tetrahydroquinoline-1-carbonyl)spiro[3.3]heptan-2-yl)-3-(4-methoxybenzyl)urea]	

Structure (SMILES)	AC1.4 Human [1] [µM]	EC50 [2] [µM]	EC50 [µM]
COc1ccc(CNC(=O)NC2CC3(CC(CC(=O)N(C)Cc4ccccc4)C3)C2)cc1 (stereo not drawn) [Compound 67, N-benzyl-2-(6-(3-(4-methoxybenzyl)ureido)spiro[3.3]heptan-2-yl)-N-methylacetamide]	2.3		35.9
COc1ccc(CNC(=O)NC2CC3(C2)CC(C(=O)NCCc2ccccc2)C3)cc1 (stereo not drawn) [Compound 69, 6-(3-(4-methoxybenzyl)ureido)-N-phenethylspiro[3.3]heptane-2-carboxamide]	4.7		38.4
COc1ccc(CNC(=O)NC2CC3(C2)CC(C(=O)NC(C)(C)c2ccccc2)C3)cc1 (stereo not drawn) [Compound 70, 6-(3-(4-methoxybenzyl)ureido)-N-(2-phenylpropan-2-yl)spiro[3.3]heptane-2-carboxamide]	3.9		38.6
